Assay: Hygroscopicity of the isolated solid on exposure to air
Assay type: physicochemical
Details: light yellow foamy solid from Method 1; turns into gummy residue on exposure to air
Protocol: Method 1: Metformin free base (1.29 g, 0.010 mol) was taken in methanol (15 mL) and while stirring L-Glutamic acid (0.74 g, […]) was added as solid. Lipoic acid (1.03 g, […]) was separately dissolved in methanol (15 mL) and added to this mixture through a in-line syringe filter (to remove polymeric material, if any). The mixture was continued to stir for 30 min. […] Metformin.L-Glutamic acid.R-Lipoic acid salt (2.9 g) was obtained as light yellow foamy solid. […] The residue was suspended in acetonitrile (30 mL) and stirred for 18 h. Filtered the pale yellow solid and dried in vacuum for 16 h to get 2.32 g of 3. ^1H NMR (200 MHz, D2O) δ 1.15-2.1 (10H, m), δ 2.1-2.42 (5H, m), δ2.88 (12H, s), δ 2.95-3.12 (1H, m) δ 3.48-3.62 (2H, m); ^13C NMR (200 MHz, D2O) δc 25.86, 27.25, 28.68, 33.81, 34.14, 37.66, 38.34, 40.51, 54.95, 56.93, 158.63, 160.28, 174.80, 181.44, 183.81.

metformin-L-glutamic acid-R (+) lipoic acid salt
hygroscopicity: high hygroscopic
